Data taken from patent US12397056B2, “System for inducing sonoporation of a drug into cancer cells and method thereof” (Freedom Waves S.R.L, priority 2018, dated 2025).
“Also recorded” adds a separate entry of the source.

Tests used:
Type in all cases: cell-based
[1] = test system: MiaPaCa-2: human pancreatic adenocarcinoma; assay: Cell death of MiaPaCa-2 cells after drug with or without pLINFU sonoporation; settings: MiaPaCa2
Procedure: (§1) The system of the present invention was tested in vitro using two cellular lines of human breast cancer and one cellular line of human pancreatic adenocarcinoma. In particular the following cellular lines were employed: • MCF-7: human breast ductal carcinoma; • MDA-MB-231: estrogen independent human breast adenocarcinoma; • MiaPaCa-2: human pancreatic adenocarcinoma.
(§2) For each combination the percentage of cell death was measured in three main experimental conditions: • administration of the drug (hereinafter named “NO-US” condition); • administration of the drug and simultaneous administration of non focalized pulsed low-intensity ultrasound with a frequency of 1 MHz and a period of 1 second, said drug being administered in a unique dose; • 1 administration of non focalized pulsed low-intensity ultrasound with a frequency of 1 MHz and a period of 1 second, followed by administration of the drug; and • administration of the drug and simultaneous administration of non focalized pulsed low-intensity ultrasound with a frequency of 1 MHz and a period of 1 second, said drug being administered in two doses of equal concentration (hereinafter termed “US-DC” condition).
(§3) All the experimental conditions, other than NO-US, were replicated for different values of duty cycle and each experimental condition were replicated for three different total concentrations of drugs. Several operation times were also tested for each cellular lines and for each type of drug.

[2] = test system: human pancreatic adenocarcinoma cells; assay: Internalization of fluoresceinamine (FA) into cancer cells (FIG. 7, CLSM)
Description: This example is relative to an experiment of internalization of a fluoresceinamine (FA). […] The tested experimental condition are: • FA-NO-US-NO DRUG: administration of FA alone, without administration of any drug and without administration of ultrasounds; • FA-LI-NO-US: administration of FA and liposomal irinotecan (LI), without administration of ultrasounds; • US-DC=12%: administration of FA and liposomal irinotecan (LI), with the simultaneous administration of pLINFUs with a duty cycle of 12%; • US-PRE-DC=1%: administration of pLINFUs with a duty cycle of 1% followed by subsequent administration of FA and liposomal irinotecan (LI); and • US-DC=1%: administration of FA and liposomal irinotecan (LI), with the simultaneous administration of pLINFUs with a duty cycle of 1%.
In FIG. 7, it is graphically represented the FA Internalization (%), i.e. the percentage of FA measured after the removal of the […] liquid from the cell culture wells, i.e. the percentage of FA inside the cell. The results of the experiment of this example were also analyzed by Confocal Laser Scanning Microscopy (CLSM) after 2 hours of incubation. FIGS. 8a, 8b, 8c, 8d, 8e show the intake of the FA into human pancreatic adenocarcinoma cells, in the five aforementioned experimental conditions.
It can be explained with a greater chemical interaction between the polymeric chains of polyethylene glycol of the liposomal membrane and the FA.

[3] = test system: MCF-7: human breast ductal carcinoma; assay: Cell death of MCF-7 cells after drug with or without pLINFU sonoporation
Procedure: as §1, §2, §3

[4] = test system: MDA-MB-231: estrogen independent human breast adenocarcinoma; assay: Cell death of MDA-MB-231 cells after drug with or without pLINFU sonoporation
Procedure: as §1, §2, §3

[5] = total concentration 0.5 μM, NO-US (no ultrasound)
[6] = total concentration 0.5 μM, US-DC = 9%
[7] = total concentration 0.5 μM, US-DC = 9% (pLINFU 1 MHz, 20 s + 20 s)
[8] = total concentration 0.5 μM, US-DC = 12%
[9] = total concentration 0.5 μM, US-DC = 12% (pLINFU 1 MHz, 20 s + 20 s)
[10] = total concentration 10 μM, NO-US (no ultrasound)
[11] = total concentration 10 μM, US-DC = 9%
[12] = total concentration 10 μM, US-DC = 9% (pLINFU 1 MHz, 20 s + 20 s)
[13] = total concentration 10 μM, US-DC = 12%
[14] = total concentration 10 μM, US-DC = 12% (pLINFU 1 MHz, 20 s + 20 s)
[15] = total concentration 50 μM, NO-US (no ultrasound)
[16] = total concentration 50 μM, US-DC = 9%
[17] = total concentration 50 μM, US-DC = 9% (pLINFU 1 MHz, 20 s + 20 s)
[18] = total concentration 50 μM, US-DC = 12%
[19] = total concentration 50 μM, US-DC = 12% (pLINFU 1 MHz, 20 s + 20 s)
[20] = total concentration 100 μg/ml, NO-US (no ultrasound)
[21] = total concentration 100 μg/ml, US-DC = 9%
[22] = total concentration 100 μg/ml, US-DC = 9% (pLINFU 1 MHz, 20 s + 20 s)
[23] = total concentration 100 μg/ml, US-DC = 12%
[24] = total concentration 100 μg/ml, US-DC = 12% (pLINFU 1 MHz, 20 s + 20 s)
[25] = total concentration 500 μg/ml, NO-US (no ultrasound)
[26] = total concentration 500 μg/ml, US-DC = 9%
[27] = total concentration 500 μg/ml, US-DC = 9% (pLINFU 1 MHz, 20 s + 20 s)
[28] = total concentration 500 μg/ml, US-DC = 12%
[29] = total concentration 500 μg/ml, US-DC = 12% (pLINFU 1 MHz, 20 s + 20 s)
[30] = total concentration 1000 μg/ml, US-DC = 9%
[31] = total concentration 1000 μg/ml, US-DC = 9% (pLINFU 1 MHz, 20 s + 20 s)
[32] = total concentration 1000 μg/ml, US-DC = 12%

CCc1c2c(nc3ccc(OC(=O)N4CCC(N5CCCCC5)CC4)cc13)-c1cc3c(c(=O)n1C2)COC(=O)[C@]3(O)CC [Irinotecan]
Cell Death % ([1]; total concentration 0.05 μM, NO-US (no ultrasound)): 11.5%
Increasing % vs NO-US ([1]; total concentration 0.05 μM, US-DC = 1%): +120.8%
Cell Death % ([1]; total concentration 0.05 μM, US-DC = 1% (pLINFU 1 MHz, 20 s + 20 s)): 25.4%
Increasing % vs NO-US ([1]; total concentration 0.05 μM, US-DC = 12%): +60.6%
Cell Death % ([1]; total concentration 0.05 μM, US-DC = 12% (pLINFU 1 MHz, 20 s + 20 s)): 18.5%
Cell Death % ([1]; total concentration 1 μM, NO-US (no ultrasound)): 21.1%
Increasing % vs NO-US ([1]; total concentration 1 μM, US-DC = 1%): +62.9%
Cell Death % ([1]; total concentration 1 μM, US-DC = 1% (pLINFU 1 MHz, 20 s + 20 s)): 34.3%
Increasing % vs NO-US ([1]; total concentration 1 μM, US-DC = 12%): +42.5%
Cell Death % ([1]; total concentration 1 μM, US-DC = 12% (pLINFU 1 MHz, 20 s + 20 s)): 30%
Cell Death % ([1]; total concentration 50 μM (irinotecan series), NO-US (no ultrasound)): 56.7%
Increasing % vs NO-US ([1]; total concentration 50 μM (irinotecan series), US-DC = 1%): +31.1%
Cell Death % ([1]; total concentration 50 μM (irinotecan series), US-DC = 1% (pLINFU 1 MHz, 20 s + 20 s)): 74.3%
Increasing % vs NO-US ([1]; total concentration 50 μM (irinotecan series), US-DC = 12%): +16.5%
Cell Death % ([1]; total concentration 50 μM (irinotecan series), US-DC = 12% (pLINFU 1 MHz, 20 s + 20 s)): 66%

Nc1ccc2c(c1)C(=O)OC21c2ccc(O)cc2Oc2cc(O)ccc21 [FA, fluoresceinamine]
intake of the FA into cells (CLSM) ([2]; FA-LI-NO-US: FA with liposomal irinotecan, no ultrasound, FIG. 8b): greater fluorescence density is observed, but only at an extracellular perimembrane level
intake of the FA into cells (CLSM) ([2]; FA-NO-US-NO DRUG: FA alone, no drug, no ultrasound, 2 hours incubation, FIG. 8a): not accumulated in the cells
FA Internalization (%) ([2]; US-DC=1% compared with the other four conditions, FIG. 7): higher FA internalization %
intake of the FA into cells (CLSM) ([2]; US-DC=1%: FA with liposomal irinotecan, simultaneous pLINFU duty cycle 1%, FIG. 8e): highest level of FA internalization
intake of the FA into cells (CLSM) ([2]; US-DC=12%: FA with liposomal irinotecan, simultaneous pLINFU duty cycle 12%, FIG. 8c): the presence of FA inside the cells became evident
intake of the FA into cells (CLSM) ([2]; US-PRE-DC=1%: pLINFU duty cycle 1% followed by FA and liposomal irinotecan, FIG. 8d): the presence of FA inside the cells became evident; also recorded: a certain grade of FA internalization is achieved

CC(=O)O[C@H]1C(=O)[C@@]2(C)[C@H]([C@H](OC(=O)c3ccccc3)[C@]3(O)C[C@H](OC(=O)[C@H](O)[C@@H](NC(=O)c4ccccc4)c4ccccc4)C(C)=C1C3(C)C)[C@]1(OC(C)=O)CO[C@@H]1C[C@@H]2O [Paclitaxel]
Cell Death % [3, 5]: 1.0%
Increasing % vs NO-US [3, 6]: +807.5%
Cell Death % [3, 7]: 9.1%
Increasing % vs NO-US [3, 8]: +242.5%
Cell Death % [3, 9]: 3.4%
Cell Death % [3, 10]: 4.1%
Increasing % vs NO-US [3, 11]: +484.7%
Cell Death % [3, 12]: 24%
Increasing % vs NO-US [3, 13]: +221.6%
Cell Death % [3, 14]: 13.2%
Cell Death % [3, 15]: 7.2%
Increasing % vs NO-US [3, 16]: +354.2%
Cell Death % [3, 17]: 32.7%
Increasing % vs NO-US [3, 18]: +147.3%
Cell Death % [3, 19]: 17.8%
Cell Death % [4, 5]: 6.4%
Increasing % vs NO-US [4, 6]: +76.6%
Cell Death % [4, 7]: 11.3%
Increasing % vs NO-US [4, 8]: −7.8%
Cell Death % [4, 9]: 5.9%
Cell Death % [4, 10]: 6.4%
Increasing % vs NO-US [4, 11]: +128.4%
Cell Death % [4, 12]: 14.7%
Increasing % vs NO-US [4, 13]: +15%
Cell Death % [4, 14]: 7.4%
Cell Death % [4, 15]: 7.9%
Increasing % vs NO-US [4, 16]: +221.9%
Cell Death % [4, 17]: 25.5%
Increasing % vs NO-US [4, 18]: +55.3%
Cell Death % [4, 19]: 12.3%
Cell Death % [1, 5]: 45.5%
Increasing % vs NO-US ([1]; total concentration 0.5 μM, US-DC = 1%): 40.1%
Cell Death % ([1]; total concentration 0.5 μM, US-DC = 1% (pLINFU 1 MHz, 20 s + 20 s)): 22.7%
Increasing % vs NO-US [1, 8]: 17.1%
Cell Death % [1, 9]: 12.7%
Cell Death % [1, 10]: 65.3%
Increasing % vs NO-US ([1]; total concentration 10 μM, US-DC = 1%): +22.7%
Cell Death % ([1]; total concentration 10 μM, US-DC = 1% (pLINFU 1 MHz, 20 s + 20 s)): 12.8%
Increasing % vs NO-US [1, 13]: +12.7%
Cell Death % [1, 14]: 9.2%
Cell Death % [1, 15]: 80.2%
Increasing % vs NO-US ([1]; total concentration 50 μM, US-DC = 1%): +12.8%
Cell Death % ([1]; total concentration 50 μM, US-DC = 1% (pLINFU 1 MHz, 20 s + 20 s)): 90.5%
Increasing % vs NO-US [1, 18]: +9.2%
Cell Death % [1, 19]: 87.6%

COc1cccc2c1C(=O)c1c(O)c3c(c(O)c1C2=O)C[C@@](O)(C(=O)CO)C[C@@H]3O[C@H]1C[C@H](N)[C@H](O)[C@H](C)O1 [Doxorubicin]
Cell Death % [3, 20]: 17.1%
Increasing % vs NO-US [3, 21]: +74.4%
Cell Death % [3, 22]: 29.8%
Increasing % vs NO-US [3, 23]: +64.9%
Cell Death % [3, 24]: 28.2%
Cell Death % [3, 25]: 23.3%
Increasing % vs NO-US [3, 26]: +102.5%
Cell Death % [3, 27]: 47.2%
Increasing % vs NO-US [3, 28]: +114.2%
Cell Death % [3, 29]: 49.9%
Cell Death % ([3]; total concentration 1000 μg/ml, NO-US (no ultrasound)): 59%
Increasing % vs NO-US [3, 30]: +19.7%
Cell Death % [3, 31]: 70.6%^
Increasing % vs NO-US [3, 32]: +39%
Cell Death % ([3]; total concentration 1000 μg/ml, US-DC = 12% (pLINFU 1 MHz, 20 s + 20 s)): 82%
Cell Death % [4, 20]: 10.9%
Increasing % vs NO-US [4, 21]: +116%
Cell Death % [4, 22]: 23.5%
Increasing % vs NO-US [4, 23]: +11.8%
Cell Death % [4, 24]: 12%
Cell Death % [4, 25]: 22.8%
Increasing % vs NO-US [4, 26]: +70.5%
Cell Death % [4, 27]: 38.8%
Increasing % vs NO-US [4, 28]: +18.4%
Cell Death % [4, 29]: 27%
Increasing % vs NO-US [4, 30]: +11.1%
Cell Death % [4, 31]: 60.5%
Increasing % vs NO-US [4, 32]: +0.3%
